The numbers were not newly measured in US20190022132A1, “TREATMENT OR PREVENTION OF PULMONARY CONDITIONS WITH CARBON MONOXIDE” (PROTERRIS, INC., priority 2013, published 2019), which cites them from elsewhere.

The subject of data set [1] is models of acute lung injury. To be noted: early timepoints; effect not sustained beyond the first 6 hours.
The conditions of data set [2]: CO alveolar concentration of 25 ppm.
The conditions of data set [3]: Phase I and Phase II human trials.
Data set [4] concerns brain. To be noted: inhalation, rats.

For the compound `[C-]#[O+]` [CO, carbon monoxide], the “airway neutrophil count and lung injury” value in data set [1] was “decrease airway neutrophil count and lung injury at early timepoints”. The “time to reach an equilibration point” value in data set [2] is listed as “about 20 hours”. Moreover, the tolerability result in data set [3] is “well tolerated”. Moreover, the “oxidative damage in the brain” value in data set [4] is listed as “can cause oxidative damage in the brain”.
